Data as given in EP2186507A2, “A liquid pharmaceutical formulation comprising nicotine for the administration to the oral cavity” (McNeil AB, priority 2001, dated 2003).
Where two headings read alike, the source gives them in different places.

Experiments:
[1] = From the text: Absorption of nicotine from the oral cavity to the systemic circulation is dependent on the pH of the saliva and the pKa of nicotine, which is about 7.8. Assuming a pH of the saliva of 6.8 only about 10% of the nicotine in saliva will be in the free base form. Thus, in order to promote absorption of nicotine in a free base form, which is the form predominantly absorbed through the mucosa, the pH of the saliva must be increased. At a pH of 8.8 about 90% of the nicotine in saliva will then be in the free base form.
[2] = Merck Index; cited from earlier work

## CN1CCCC1c1cccnc1 (stereo not drawn) [nicotine, 3-(1-methyl-2-pyrrolidinyl)-pyridine]
[1]; assuming a pH of the saliva of 6.8
  nicotine in saliva in the free base form: about 10%
[1]; at a pH of 8.8
  nicotine in saliva in the free base form: about 90%
[2]
  amount that may kill an adult: Approximately forty
